The test system of one data set is MCF7. Briefly: Cytotoxicity against human MCF7 cells after 24 hrs by MTT assay. Particulars: MCF7, 24 h. It counts as functional, cell-based.
A further data set deals with A549. Briefly: Cytotoxicity against human A549 cells after 24 hrs by MTT assay. It counts as functional, cell-based. The note with it: A549, 24 h. A general note: Tetrazolium assays rely on reduction of a dye to a coloured formazan, in cell work by metabolically active cells.
The next data set deals with PC-3. Briefly: Cytotoxicity against human PC3 cells after 24 hrs by MTT assay. The note with it: PC-3, 24 h. The class given is functional, cell-based.
Data set [1] addresses Voltage-gated L-type calcium channel (Rattus norvegicus, UniProt P22002+Q02485+P27732). Briefly: Inhibition of voltage-dependent L-type calcium channel in Wistar rat 3rd-order mesenteric artery assessed as reduction in norepinephrine-induced vessel contraction by myographic method. The note with it: for inhibition (INH): rat.
Data set [2] addresses T1, L-type calcium channel (Mus musculus, UniProt Q01815+Q02789+Q99246+Q9JIS7). Briefly: Inhibition of voltage-dependent L-type calcium channel in mouse MOVAS cells assessed as reduction in KCl/extracellular Ca2+-induced increase in intracellular calcium level pretreated for 10 mins followed by KCl addition by Fluo-3/AM dye based flow cytometry. It counts as cell-based. (A change in cytosolic calcium serves as a functional read-out for many receptors and channels.)

Data set [3] has as its target T1, L-type calcium channel. Briefly: Inhibition of voltage-dependent L-type calcium channel in mouse MOVAS cells assessed as reduction in KCl/extracellular Ca2+-induced increase in intracellular calcium level at 0.1 to 0.5 uM pretreated for 10 mins followed by KCl addition by Fluo-3/AM dye based laser scanning microscopic method. The class given is cell-based.
The species named for data set [4] is Mus musculus. Briefly: Vasorelaxant activity in mouse MOVAS1 cells assessed as reduction in KCl-induced increase in intracellular calcium level at 0.1 to 0.5 uM pretreated for 10 mins followed by KCl addition by Fluo-3/AM dye based flow cytometry. The class given is functional, cell-based.
Data set [5] is filed under the species Mus musculus. Briefly: Vasorelaxant activity in mouse MOVAS1 cells assessed as reduction in KCl-induced increase in intracellular calcium level at 0.1 to 0.5 uM pretreated for 10 mins followed by KCl addition by Fluo-3/AM dye based laser scanning microscopic method. It counts as functional, cell-based.
In a further data set the test system is Artery. Briefly: Vasorelaxant activity in Wistar rat endothelium-denuded 3rd-order mesenteric artery assessed as reduction in norepinephrine-induced vessel contraction by myographic method. The class given is functional, tissue-based.

Structures are written as SMILES. Structures can show the parent of a compound that is named as a salt. The source made the active and inactive calls. The calls are words filed in the database; no cut-off is given here.

Broadly, the IC50 is the midpoint of a concentration-inhibition curve. A lower IC50 goes with greater potency. Consider `CCOC1C=C(CC[C@]2(C)[C@@H](C)CC[C@@]3(C)C(C(=O)O)=CCC[C@@H]23)C(=O)O1` (stereo partly specified), for which the IC50 in the data set with MCF7, in the data set with A549 and with PC-3 was greater than 40 µM throughout.

For `C=C1C(=O)O[C@H]2C[C@]3(C)CC[C@H](O)C(C)=C3C[C@@H]12`, the IC50 with MCF7, in the data set on A549 and in the data set on PC-3 was greater than 40 µM throughout.

Take `COc1cccc2c1C(=O)c1c(O)c3c(c(O)c1C2=O)C[C@@](O)(C(=O)CO)C[C@@H]3O[C@H]1C[C@H](N)[C@H](O)[C@H](C)O1` [DOXORUBICIN HYDROCHLORIDE]: the results for the IC50 in the data set on MCF7, with A549 and in the data set on PC-3 were 0.4 µM, 0.1 µM and 0.8 µM, respectively.

In general, EC50 refers to the midpoint of the concentration-response curve. Take `CCOC1C=C(CC[C@]2(C)[C@@H](C)CC[C@@]3(C)C(C(=O)O)=CC=C[C@@H]23)C(=O)O1` (stereo partly specified): in data set [1], the EC50 came to 14 µM. Also, the “inhibition (INH)” value in data set [1] is on record as “Dose-dependent effect”. Also, the IC50 with MCF7, in the data set on A549 and in the data set with PC-3 was greater than 40 µM throughout.

Regarding `C=C1CC[C@H](C)[C@@](C)(CCC2=CC(OC)OC2=O)C/C=C\C=C/1C(=O)O` (stereo partly specified), the concentration for a half-maximal effect (EC50) in data set [1] was determined as 22 µM. Moreover, the “inhibition (INH)” value in [1] is on record as “Dose-dependent effect”. Further, the 50% inhibitory concentration (IC50) with MCF7, in the data set on A549 and with PC-3 was greater than 40 µM throughout.

With `C=C1C(=O)[C@@]23C[C@@H]1CC[C@@H]2[C@@]1(C)CCCC(C)(C)[C@@H]1COC3=O`, the values for the IC50 in the data set on MCF7, in the data set on A549 and in the data set on PC-3 were 6.6 µM, 2.3 µM and 11.5 µM, respectively.

Regarding `CC1(C)[C@@H]2[C@@H]3[C@H](CC[C@@]3(C)O)C(=O)CC[C@@H]21`, the concentration for half-maximal inhibition (IC50) with MCF7, with A549 and in the data set with PC-3 was greater than 40 µM throughout.

Regarding `CC(C)=CC(=O)C[C@@]1(C)[C@@H]2[C@H]3[C@@H](C)CC[C@]3(O)[C@@H](C)CC[C@@H]21`, the values for the half-inhibitory concentration (IC50) in the data set on MCF7, with A549 and in the data set on PC-3 were 15.1 µM, 20.8 µM and 13.1 µM, respectively.

For the compound `C=C1C(=O)O[C@H]2C[C@]3(C)CCC=C(C)[C@H]3C[C@@H]12`, the 50% inhibitory concentration (IC50) with MCF7, in the data set with A549 and in the data set with PC-3 was greater than 40 µM in each case.

Consider `CC1(C)[C@@H]2[C@H]3[C@H](CC[C@@]3(C)O)[C@](O)(CO)CC[C@@H]21`, for which the half-maximal inhibitory concentration (IC50) in the data set with MCF7, in the data set with A549 and in the data set with PC-3 was greater than 40 µM each time.

For `C=C1CC[C@H](C)[C@@](C)(CCC2=CCOC2=O)C/C=C\C=C/1C(=O)O`, the EC50 in data set [1] was 14 µM. In addition, the “inhibition (INH)” value in data set [1] is “Dose-dependent effect”. Also, the half-inhibitory concentration (IC50) with MCF7, in the data set with A549 and in the data set on PC-3 was greater than 40 µM each time.

Take `C=C(C)[C@H]1C[C@H]2C(=C)CCC[C@]2(C)C[C@@H]1O`: the half-inhibitory concentration (IC50) in the data set on MCF7, with A549 and with PC-3 was greater than 40 µM throughout.

Consider `C=C1CC[C@H](C)[C@@](C)(CCC2=CC(OCC)OC2=O)C/C=C\C=C/1C(=O)O` (stereo partly specified), for which the EC50 came to 12 µM in data set [1] and 37 µM in the data set on Artery (Rattus norvegicus, Wistar, Artery). The “inhibition (INH)” value in data set [1] was “Dose-dependent effect”; at L-type calcium channel [2] it was “Dose-dependent effect”; at L-type calcium channel [3] it was “Active”. The IC50 in the data set with MCF7, in the data set on A549 and in the data set with PC-3 was greater than 40 µM in each case. Also, the result in the data set listed under Mus musculus [4] and in the data set filed under Mus musculus [5] was inactive. Moreover, the “%max” value in the data set with Artery is reported as 20%.

For the compound `C=C1CC[C@H](C)[C@@](C)(CCC2=CC(O)OC2=O)C/C=C\C=C/1C(=O)O` (stereo partly specified), the concentration giving a half-maximal response (EC50) in data set [1] amounted to 4.1 µM. Besides, the “inhibition (INH)” value in [1] is “Dose-dependent effect”. Besides, the half-inhibitory concentration (IC50) with MCF7, in the data set with A549 and with PC-3 was greater than 40 µM throughout.

For `CC1(C)[C@@H]2[C@@H]3[C@H](CC[C@@]3(C)O)[C@@](C)(O)CC[C@@H]21`, the IC50 with MCF7, with A549 and in the data set on PC-3 was greater than 40 µM in each case.

As for `C[C@H]1CC[C@@]2(C)C(C(=O)O)=CCC[C@H]2[C@]1(C)CCC1=CCOC1=O`, the EC50 in data set [1] is 7.3 µM. Moreover, in [1], the “inhibition (INH)” value is given as “Dose-dependent effect”. Further, the IC50 in the data set with MCF7, in the data set on A549 and with PC-3 was greater than 40 µM in each case.

The values are drawn from ChEMBL document CHEMBL4229480, “Terpenoids with vasorelaxant effects from the Chinese liverwort Scapania carinthiaca” (Bioorg Med Chem, 2018).
